Paper PMC11788587, “Validating Low‐Dose Iohexol as a Marker for Glomerular Filtration Rate by In Vitro and In Vivo Studies” (Clinical and Translational Science, 2025)

How the values were obtained:
[1] = tested on: hOAT1, hOAT3, hOCT1, hOCT2, hMATE1, or hMATE2K; assay: Substrate assessments, summary across transporters; type: in vitro ADME, human
Text: We characterized the inhibitory potential of iohexol on major drug transporters recommended by regulatory agencies, which were previously assessed in a clinical transporter phenotyping cocktail study. These transporters include hOAT1, hOAT3, hOCT1, hOCT2, hMATE1, hMATE2K, human organic anion transporter polypeptides (hOATP)1B1, hOATP1B3, and human multidrug resistance protein (hMDR)1. Additionally, we investigated whether iohexol is a substrate for any of the renal transporters among these, including hOAT1/3, hOCT1/2, and hMATE1/2K. Cell‐based uptake assays were used to assess the activities of hOAT1/3, hOCT1/2, hMATE1/2K, and hOATP1B1/1B3. […]
R version 4.2.1 (R Foundation for Statistical Computing, Vienna, Austria) was used for statistical evaluations and data visualization. The data analysis approach for the in vitro study was detailed by Hsin CH et al..^1 In brief, for transport assays, the initial uptake rate was calculated by normalizing the substrate concentration to both the protein concentration and the incubation time for each dish or well. The transporter-mediated uptake rate (net uptake) was determined by performing an element-wise subtraction of uptake rates from different conditions. […] Net uptake rates were determined by subtracting the uptake rate of the control cells or vesicles from that of the transporter-expressing cells or vesicles for each pair. […]

[2] = target: T1, hOCT1 (Homo sapiens, UniProt O15245); assay: Substrate assessment: iohexol uptake in 293 cells expressing hOCT1 vs control; type: in vitro ADME; conditions: 10 μM iohexol, median (95% CI)
T1 construct: expressed in transfected cells; host or cells: HEK-293 (293) cells, pEBTetD plasmid, doxycycline-induced
T1 sequence (O15245 1-554): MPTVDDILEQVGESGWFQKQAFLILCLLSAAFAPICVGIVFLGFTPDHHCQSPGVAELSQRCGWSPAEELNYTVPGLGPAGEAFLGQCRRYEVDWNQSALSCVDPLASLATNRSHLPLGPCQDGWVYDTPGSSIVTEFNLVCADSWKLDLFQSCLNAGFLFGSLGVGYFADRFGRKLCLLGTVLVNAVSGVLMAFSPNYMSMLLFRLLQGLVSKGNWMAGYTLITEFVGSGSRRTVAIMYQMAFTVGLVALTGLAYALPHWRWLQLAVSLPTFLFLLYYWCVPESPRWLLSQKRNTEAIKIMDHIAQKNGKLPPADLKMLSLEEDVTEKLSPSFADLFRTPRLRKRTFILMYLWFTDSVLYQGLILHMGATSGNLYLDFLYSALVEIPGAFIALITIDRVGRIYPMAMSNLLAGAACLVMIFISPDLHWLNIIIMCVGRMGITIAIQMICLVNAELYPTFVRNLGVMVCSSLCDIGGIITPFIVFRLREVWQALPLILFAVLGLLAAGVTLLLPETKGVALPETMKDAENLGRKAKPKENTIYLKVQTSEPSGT
Text: We characterized the inhibitory potential of iohexol on major drug transporters recommended by regulatory agencies, which were previously assessed in a clinical transporter phenotyping cocktail study. These transporters include hOAT1, hOAT3, hOCT1, hOCT2, hMATE1, hMATE2K, human organic anion transporter polypeptides (hOATP)1B1, hOATP1B3, and human multidrug resistance protein (hMDR)1. Additionally, we investigated whether iohexol is a substrate for any of the renal transporters among these, including hOAT1/3, hOCT1/2, and hMATE1/2K. Cell‐based uptake assays were used to assess the activities of hOAT1/3, hOCT1/2, hMATE1/2K, and hOATP1B1/1B3. Inside‐out membrane vesicle uptake assays were used to evaluate the activity of hMDR1.
For substrate assessments, iohexol was incubated with stably transfected HEK‐293 cells expressing one of the following transporters: hOAT1, hOAT3, hOCT1, hOCT2, hMATE1, or hMATE2K, as well as with control cells lacking transporter expression. Stably transfected cell lines containing pEBTetD plasmids with wild‐type human transporter cDNAs were generated as previously described. Transporter expression was induced by adding 1 μg/mL doxycycline to the growth medium for at least 20 h. Iohexol would be considered a substrate for these transporters if: (1) the ratio of iohexol uptake in cells expressing the transporter to that in control cells was ≥ 2, and (2) a known inhibitor of the transporter reduced iohexol uptake to ≤ 50% at concentrations ≥ 10 times its inhibition constant or half‐maximal inhibitory concentration.
Uptake assays were performed using stably transfected 293 cells, with or without the expression of one of the following transporters: hOAT1, hOAT3, hOCT1, hOCT2, hMATE1, or hMATE2K, as previously described.^1
For the substrate assessment, cells were incubated with 10 µM iohexol for 10 minutes and 30 minutes for each transporter. Inhibition assays were performed using specific standard substrates for each transporter: 10 µM para-aminohippuric acid (PAH) for hOAT1, 3 µM estrone-3-sulfate (E3S) for hOAT3, 50 µM metformin for hOCT1, 5 µM metformin for hOCT2, and 3 µM 1-methyl-4-phenylpyridinium (MPP+) for hMATE1 and hMATE2K. […]
R version 4.2.1 (R Foundation for Statistical Computing, Vienna, Austria) was used for statistical evaluations and data visualization. The data analysis approach for the in vitro study was detailed by Hsin CH et al..^1 In brief, for transport assays, the initial uptake rate was calculated by normalizing the substrate concentration to both the protein concentration and the incubation time for each dish or well. The transporter-mediated uptake rate (net uptake) was determined by performing an element-wise subtraction of uptake rates from different conditions. […]

Increase in iohexol accumulation vs control cells, range of median values across transporters ([1]; 10 μM iohexol for 10 and 30 min): −0.67 to 1.5 pmol/mg protein
Differences in intracellular accumulation (expression on minus off) ([2]; 10 minutes): 0.16 (-1.8 to 0.79) pmol/mg protein
Uptake ratio (transporter-expressing vs non-expressing cells) ([2]; 10 minutes): 1 (0.84 to 1.1)
Differences in intracellular accumulation (expression on minus off) ([2]; 30 minutes): -0.51 (-1.1 to -0.15) pmol/mg protein
Uptake ratio (transporter-expressing vs non-expressing cells) ([2]; 30 minutes): 0.89 (0.79 to 0.97)
SMILES: CC(=O)N(CC(O)CO)c1c(I)c(C(=O)NCC(O)CO)c(I)c(C(=O)NCC(O)CO)c1I (stereo not drawn) [iohexol]
Substrate of the transporters (conclusion) ([1]; in vitro): neither a substrate nor a significant inhibitor
